Assay results published in US12215098B2 (priority 2018, dated 2025).
“Also recorded” adds a separate entry of the source.

Assays:
[1] = system: NASH model (high-fat diet feeding and CCl4 induction); experiment: In vivo efficacy assay, high-fat diet and CCl4 induced NASH model; design: species or system mice
Method: The model building in this assay included two steps: high-fat diet feeding and CCl4 induction. Firstly, the mice were fed with high-fat diet to induce non-alcoholic fatty liver. The mice with a body weight of >35 g were selected and continued to be fed with high-fat diet while being administered with 25% CCl4 ([…]) by intraperitoneal injection twice a week for four weeks.
The day when the administration of CCl4 was started was set as day 0, and the time when the administration of CCl4 was started was set as hour 0. On the day when the administration of CCl4 was started, the administration was started by intragastric gavage. […] The time point of the injection of CCl4 should be 4 hours or longer apart from the time point of the first administration of the day.
The healthy control group consisted of 6 normal mice, which were fed with ordinary diet during the assay, without CCl4 injection.
48 obese mice were used in the model group and the administration group. Each group consisted of 8 mice. After grouping, the mice were injected intraperitoneally with CCl4 and administered with different doses of drugs or vehicle, respectively.
The analysis software Graphpad Prism6 was used for comparation between two groups.
For the analysis of hepatic pathology in animal models of non-alcoholic steatohepatitis, the therapeutic effect of the compound on NAFLD was comprehensively evaluated in three aspects of hepatocyte steatosis, hepatocyte ballooming degeneration, and inflammation accumulation in hepatic lobule with the reference of clinicopathological diagnosis and evaluation criteria for NAFLD, and using NAFLD activity score (NAS).
All slices stained with Sirius red were wholly scanned by a Digital pathoscope 4S slide scanner. 2 fields of view were randomly selected under a 5× field of view, and 2 fields of view covered 85% of the liver tissue area. Image pro-plus 6.0 software was then used for quantitative analysis, and fibrosis deposition area in the slice was calculated.

[2] = target: Glutathione-S-transferase-labeled FXR human protein (Homo sapiens (Human), UniProt Q96RI1); experiment: FXR biochemical assay (alphascreen); details: FXR with biotin-labeled steroid receptor coactivator, read-out: EC50 (nM) Mean ± SEM, activation effect on FXR
Method: 1. […] The reference compound was prepared as a 400 μM DMSO solution, and then diluted 1.5-fold to 10 concentration points. […] 2. […] 3. […] 4. […] 5. […] 6.

[3] = Hygroscopicity study by dynamic vapor sorption (DVS); format: physicochemical; details: 25° C. and 80% RH
Method: Dynamic Vapor Sorption (DVS) Method Used in the Present Disclosure
Instrument model: SMS DVS Advantage dynamic vapor sorption apparatus
Test condition: The sample (10 to 15 mg) was placed in a DVS sample pan for testing.
The detailed DVS parameters were as follows:
Equilibration: dm/dt=0.01%/min (The shortest time: 10 min, and the longest time: 180 min)
Drying: Dried for 120 min at 0% RH
RH (%) test gradient: 10%
Range of RH (%) test gradient: 0%-90%-0%
The classification of hygroscopicity evaluation was as follows:
SMS DVS Advantage dynamic vapor sorption apparatus

[4] = Solid stability test (high temperature, high humidity, strong light; XRPD); format: physicochemical
Excerpt: For the samples placed under high temperature and high humidity conditions, the vial opening was sealed with aluminum foil paper and small holes were punched in the aluminum foil paper to ensure that the sample can fully contact the ambient air. For the samples placed under strong light condition, the vial opening was sealed with aluminum foil paper. The samples placed under various conditions were sampled and tested for XRPD on the 5th day and 10th day, and the test results were compared with the initial test results on day 0.

[5] = 7.5 mg/kg, intragastric gavage once a day, 28 days, Mean±SEM
[6] = 15 mg/kg, intragastric gavage once a day, 28 days, Mean±SEM

Chain of Glutathione-S-transferase-labeled FXR human protein (Q96RI1 whole entry): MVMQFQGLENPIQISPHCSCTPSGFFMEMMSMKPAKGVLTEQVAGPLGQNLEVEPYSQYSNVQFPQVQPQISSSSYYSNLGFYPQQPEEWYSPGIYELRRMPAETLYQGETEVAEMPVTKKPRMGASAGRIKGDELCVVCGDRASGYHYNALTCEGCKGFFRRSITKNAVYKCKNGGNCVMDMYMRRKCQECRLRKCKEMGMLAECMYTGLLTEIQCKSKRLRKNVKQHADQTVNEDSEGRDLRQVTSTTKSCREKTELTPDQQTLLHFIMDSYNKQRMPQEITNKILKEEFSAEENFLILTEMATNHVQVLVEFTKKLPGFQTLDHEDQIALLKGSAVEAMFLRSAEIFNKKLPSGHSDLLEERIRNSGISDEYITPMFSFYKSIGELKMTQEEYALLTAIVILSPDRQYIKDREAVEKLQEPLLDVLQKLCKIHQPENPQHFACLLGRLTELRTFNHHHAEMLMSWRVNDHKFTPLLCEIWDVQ

Classification of hygroscopicity [3] | ΔW, weight increase by moisture absorption [3] [%] | Crystal form (XRPD) ([4]; Day 0, initial) | Crystal form (XRPD) ([4]; High humidity (room temperature/relative humidity at 92.5%, open), Day 5) | Crystal form (XRPD) ([4]; High humidity (room temperature/relative humidity at 92.5%, open), Day 10) | Crystal form (XRPD) ([4]; High temperature (60° C., open), Day 5) | Crystal form (XRPD) ([4]; High temperature (60° C., open), Day 10) | Crystal form (XRPD) ([4]; Strong light (5000 lx, sealed), Day 5) | Crystal form (XRPD) ([4]; Strong light (5000 lx, sealed), Day 10) | Solid stability (in words) ([4]; high temperature, high humidity and strong light) | SMILES | Hepatic fibrosis (fibrosis deposition area, Sirius red) [1, 5] | Hepatocyte ballooming degeneration score [1, 5] | Hepatic steatosis score [1, 6] | Hepatocyte ballooming degeneration score [1, 6] | Hepatocyte ballooming degeneration score ([1]; 45 mg/kg, intragastric gavage once a day, 28 days, Mean±SEM, one mouse 0.17 determined as abnormal value) | Hepatic function and hepatic damage (in words) ([1]; conclusion of the assay) | EC50 [2] [nM] | NAS score [1, 6] | NAS score ([1]; 15 mg/kg, intragastric gavage once a day, 28 days, Mean±SEM, listed as PX104)
– | – | – | – | – | – | – | – | – | – | O=C(O)c1cnc(N2C(=O)CCc3cc(OCc4c(-c5c(Cl)cccc5Cl)noc4C4CC4)ccc32)c(Cl)c1 [compound of formula (I)] | 2.580 | 0.0 | 0.854 | 0.0 | 0.021^@ ± | significantly improve hepatic function and reduce hepatic damage | – | – | –
– | – | – | – | – | – | – | – | – | – | O=C(O)c1ccnc(N2CC(O)(c3ccc(OCc4c(-c5c(Cl)cccc5Cl)noc4C4CC4)cc3Cl)C2)c1 [PX-104, reference compound] | – | – | – | 0.0 | – | – | 65.2 | 1.479 | significantly reduce the NAS score
slightly hygroscopic | 0.5834 | Crystal form A | Crystal form A | Crystal form A | Crystal form A | Crystal form A | Crystal form A | Crystal form A | good stability; also recorded: stable | O=C(O)c1cnc(N2C(=O)CCc3cc(OCc4c(-c5c(Cl)cccc5Cl)noc4C4CC4)ccc32)c(Cl)c1 | – | – | – | – | – | – | – | – | –
